The subject of one experiment is IgE. The following applies: Japanese Patent Application Laid-open No. 2001-288093; cited from earlier work.
A further experiment deals with atopic dermatitis. The settings on record: Japanese Patent Application Laid-open No. Hei 11-255656; cited from earlier work.
Experiment [1] relates to dermatitis induced by repeated application of hapten on an NC/Nga mouse. Briefly: Performance Evaluation Test 1: dermatitis induced by repeated application of hapten (PiCl) on NC/Nga mice. Format: in vivo, NC/Nga Tnd Crj male mice. The following applies: 0.5% in AIN93G feed; for score of dermatitis (progress of the atopic dermatitis): PiCl induction once a week for five weeks, vs control group, FIGS. 1 and 2. Here is the method: The performance of stachyose mixed in livestock feeds was evaluated against the dermatitis induced by repeated application of hapten on an NC/Nga mouse frequently used as an atopic dermatitis model animal (M. Okada et al., Oyo Yakuri/Pharmcometrics, vol. 59, 135–139 (2000)).
(§1) NC/Nga Tnd Crj male mice at six weeks of age (purchased from Nihon Charles River) were habituated for two weeks. The animals decided as healthy were used for the experiments after an observation of general conditions and body weight measurement. The mice were divided into three groups so that the body weight was averaged. One group was composed of nine mice. A purified livestock feed (AIN93G produced by Oriental Yeast Co.) was used as a basic feed. The mice in Group 1 (a control group) was fed with the purified feed, while the mice in Groups 2 and 3 were fed with a feed prepared by adding the test samples as shown In Table 1 in the basic feed.
Stachyose used in this test was purified to a purity of 98% by ion exchange chromatography after extracting from soybeans with 70% ethanol. Saccharose used in this test was purchased from Wako Junyaku Kabushiki Kaisha.
The mice at eight weeks of age were used for sensation as follows. […]
The symptoms of the atopic dermatitis were observed as follows. The skin condition was observed twice a week starting from a day before the first induction, and the following items were evaluated based on the criteria of clinical syndromes of the human atopic dermatitis. […]
(§2) The score of dermatitis, serum total IgE concentration, and the average body weight and standard deviation thereof were calculated. The significant difference was evaluated by the Student's t-test. A significance level of 5% was evaluated as significant, and the results of the Student's t-test were expressed by dividing into a level of less than 5% (P<0.05) and less than 1% (P<0.01).

A further experiment deals with serum total IgE. Description: Serum total IgE concentration by EIA in PiCl-sensitized NC/Nga mice. The class given is in vivo, NC/Nga Tnd Crj male mice. The settings on record: 0.5% in AIN93G feed; blood on 43rd day after administration; vs control group; FIG. 4.
Source text: as §1
The serum total IgE concentration was measured as follows. The blood was extracted on day four before administration, and on 43 rd day after administration (the day for starting administration is counted as the first day). The blood (200 μL) is sampled from the orbital plexus venosus using a heparinated capillary. […]
as §2

Experiment [2] has as its system conventional grade NC/Nga mice that spontaneously start the atopic dermatitis. Briefly: Performance Evaluation Test 2: spontaneous atopic dermatitis in conventional grade NC/Nga mice. The class given is in vivo, Conventional grade female NC/Nga mice. The following applies: feed supplemented with 1% stachyose. The text has this: The effect of stachyose on the dermatitis was investigated using conventional grade NC/Nga mice that spontaneously start the atopic dermatitis without applying any haptens (H. Matsuda et al., International Immunology, vol. 9, 461–466 (1997)).
Conventional grade female NC/Nga mice at four weeks of age (purchased from Nihon SLC) were habituated for one week. The mice were divided into two groups so that the body weight was averaged. One group was composed of six mice. All the mice were freely fed on the purified livestock feed (AIN93G) before grouping, and the stachyose administration group was fed on a feed supplemented with 1% stachyose after grouping. The skin conditions were observed and evaluated once per two weeks from the day of start of grouping. The evaluation method was the same as in performance evaluation method 1.

In the case of `OC[C@H]1O[C@H](OC[C@H]2O[C@H](O[C@]3(CO)O[C@H](CO)[C@@H](O)[C@@H]3O)[C@H](O)[C@@H](O)[C@@H]2O)[C@H](O)[C@@H](O)[C@H]1O` [raffinose], in the experiment on IgE, the “production of IgE” value is recorded as “has an action for suppressing production of IgE”. Also, the anti-atopic dermatitis action entry in the experiment with atopic dermatitis is “has an anti-atopic dermatitis action”.
`OC[C@H]1O[C@@](CO)(O[C@H]2O[C@H](CO)[C@@H](O)[C@H](O)[C@H]2O)[C@@H](O)[C@@H]1O` [saccharose, reference compound]: the “score of dermatitis (progress of the atopic dermatitis)” value in experiment [1] was “No effects were observed”.
As to `OC[C@H]1O[C@H](OC[C@H]2O[C@H](OC[C@H]3O[C@H](O[C@]4(CO)O[C@H](CO)[C@@H](O)[C@@H]4O)[C@H](O)[C@@H](O)[C@@H]3O)[C@H](O)[C@@H](O)[C@H]2O)[C@H](O)[C@@H](O)[C@H]1O` [stachyose], the “score of dermatitis (progress of the atopic dermatitis)” value in experiment [1] is reported as “progress of the atopic dermatitis was evidently blocked”. For the same compound, the “appearance of the skin (photograph of representative mouse)” value in experiment [1] (compared with the control group (Group 1), FIG. 3) was “An evident difference of the appearance of the skin was observed”. Also, the “level of serum total IgE” value in the experiment with serum total IgE was “does not influence the level of IgE”. Moreover, the onset of dermatitis result in experiment [2] (6 to 8 weeks after grouping, control: evident dermatitis on face and ears) was “no onset of dermatitis was observed at all”; in experiment [2] (week four after grouping, control: five of six mice with dermatitis on the face), “no onset of the dermatitis was observed”. The scores of dermatitis result in experiment [2] (FIG. 5) is “the effect of stachyose is evident”.

The record behind these values is patent US7166582B2, “Antiallergic composition” (J-Oil Mills, Inc., priority 2003, dated 2007).
